The text below walks through data of patent publication US10828298B2, “Pharmaceutical composition containing 2-{4-[N-(5,6-diphenylpyrazin-2-yl)-N-isopropylamino]butyloxy]-N-(methylsulfonyl)acetamide” (NIPPON SHINYAKU CO., LTD., priority 2015, dated 2020).

Data set [1] can be described thus: Stability of Compound (I) itself to temperature and humidity (formulation study). It is filed as physicochemical.
Data set [2] has as its target prostaglandin I2 (PGI2) receptor (Homo sapiens, UniProt P43119). Conditions: known, PTL 1; cited from earlier work.

SMILES strings stand for the structures.

Sequence of prostaglandin I2 (PGI2) receptor (P43119 whole entry): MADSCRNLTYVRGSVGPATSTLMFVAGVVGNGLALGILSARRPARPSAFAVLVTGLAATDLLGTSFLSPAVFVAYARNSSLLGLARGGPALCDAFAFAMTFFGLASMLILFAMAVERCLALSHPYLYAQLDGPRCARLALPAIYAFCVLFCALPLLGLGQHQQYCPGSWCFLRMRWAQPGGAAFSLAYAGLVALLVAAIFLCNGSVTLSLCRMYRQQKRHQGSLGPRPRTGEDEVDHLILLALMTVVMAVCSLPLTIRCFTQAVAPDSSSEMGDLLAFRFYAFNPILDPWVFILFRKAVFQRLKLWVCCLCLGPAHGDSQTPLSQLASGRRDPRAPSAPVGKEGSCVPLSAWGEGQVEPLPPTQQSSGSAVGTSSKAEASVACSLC

Turning to `CC(C)N(CCCCOCC(=O)NS(C)(=O)=O)c1cnc(-c2ccccc2)c(-c2ccccc2)n1` [Compound (I), 2-{4-[N-(5,6-diphenylpyrazin-2-yl)-N-isopropylamino]butyloxy}-N-(methylsulfonyl)acetamide], in data set [1], the “Stability of Compound (I) itself, in words” value was “stable to temperature and humidity”. The “PGI2 receptor agonistic activity, in words” value in data set [2] is recorded as “excellent”.
